The source made the active and inactive calls. The rule behind the calls is not given here.

Experimental findings from ChEMBL document CHEMBL5150061, “Design and Synthesis of Fibroblast Growth Factor Receptor (FGFR) and Histone Deacetylase (HDAC) Dual Inhibitors for the Treatment of Cancer” (J Med Chem, 2022) are described below.

The target of experiment [1] is Histone deacetylase 1 (Homo sapiens, UniProt Q13547). Nature of the experiment: Inhibition of HDAC1 (unknown origin).
Experiment [2] addresses T1, Protein deacetylase HDAC6 (Homo sapiens, UniProt Q9UBN7).
T1 sequence (Q9UBN7 whole entry): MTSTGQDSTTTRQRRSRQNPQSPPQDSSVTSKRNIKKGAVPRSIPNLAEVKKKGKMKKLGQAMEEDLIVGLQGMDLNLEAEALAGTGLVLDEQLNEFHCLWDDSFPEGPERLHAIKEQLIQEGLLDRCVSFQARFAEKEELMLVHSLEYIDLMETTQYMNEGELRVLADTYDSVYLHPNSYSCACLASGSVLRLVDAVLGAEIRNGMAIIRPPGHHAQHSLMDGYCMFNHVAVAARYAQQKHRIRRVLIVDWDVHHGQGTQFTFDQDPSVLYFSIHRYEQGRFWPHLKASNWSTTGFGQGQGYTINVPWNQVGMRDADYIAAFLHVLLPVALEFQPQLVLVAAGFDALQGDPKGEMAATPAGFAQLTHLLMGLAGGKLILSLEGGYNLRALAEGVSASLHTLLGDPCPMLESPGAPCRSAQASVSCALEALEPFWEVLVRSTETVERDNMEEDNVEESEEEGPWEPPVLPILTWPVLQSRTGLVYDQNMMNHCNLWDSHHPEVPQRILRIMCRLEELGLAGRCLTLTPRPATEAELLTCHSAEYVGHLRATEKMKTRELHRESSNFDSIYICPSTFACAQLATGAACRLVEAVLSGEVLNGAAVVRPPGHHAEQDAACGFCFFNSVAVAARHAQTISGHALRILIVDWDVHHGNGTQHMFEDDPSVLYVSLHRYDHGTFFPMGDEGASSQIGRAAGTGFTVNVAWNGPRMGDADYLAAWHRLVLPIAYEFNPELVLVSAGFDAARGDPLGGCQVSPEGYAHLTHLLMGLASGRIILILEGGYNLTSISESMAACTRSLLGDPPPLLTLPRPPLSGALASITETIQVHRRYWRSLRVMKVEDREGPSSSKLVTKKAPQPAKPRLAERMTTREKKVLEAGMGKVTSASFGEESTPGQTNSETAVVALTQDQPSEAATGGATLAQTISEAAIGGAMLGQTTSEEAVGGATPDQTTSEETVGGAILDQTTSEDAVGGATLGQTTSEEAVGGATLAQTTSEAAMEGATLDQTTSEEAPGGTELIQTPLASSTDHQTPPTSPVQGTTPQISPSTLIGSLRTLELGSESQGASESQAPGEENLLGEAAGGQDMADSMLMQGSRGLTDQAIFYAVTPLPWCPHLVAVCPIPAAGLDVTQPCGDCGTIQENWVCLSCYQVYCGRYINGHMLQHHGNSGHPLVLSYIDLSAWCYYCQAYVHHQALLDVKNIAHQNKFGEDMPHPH
In words: Inhibition of HDAC6 (unknown origin).

The target in experiment [3] is Fibroblast growth factor receptor 2 (Homo sapiens, UniProt P21802). In words: Inhibition of FGFR2 (unknown origin).
For experiment [4], the target named is Fibroblast growth factor receptor 3 (Homo sapiens, UniProt P22607). In words: Inhibition of FGFR3 (unknown origin).
In experiment [5] the target is T2, Histone deacetylase 8 (Homo sapiens, UniProt Q9BY41).
T2 sequence (Q9BY41 whole entry): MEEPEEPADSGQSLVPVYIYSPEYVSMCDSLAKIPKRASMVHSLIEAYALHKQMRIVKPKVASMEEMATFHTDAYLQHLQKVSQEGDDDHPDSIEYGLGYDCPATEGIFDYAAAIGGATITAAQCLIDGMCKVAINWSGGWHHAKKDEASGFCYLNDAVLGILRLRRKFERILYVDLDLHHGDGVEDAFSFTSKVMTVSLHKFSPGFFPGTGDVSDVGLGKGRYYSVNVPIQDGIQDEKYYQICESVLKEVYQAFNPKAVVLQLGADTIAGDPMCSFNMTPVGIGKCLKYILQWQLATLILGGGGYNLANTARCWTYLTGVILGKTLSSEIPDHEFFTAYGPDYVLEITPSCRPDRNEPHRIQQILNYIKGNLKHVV
Nature of the experiment: Inhibition of HDAC8 (unknown origin).

Experiment [6] addresses Fibroblast growth factor receptor 4 (Homo sapiens, UniProt P22455). Nature of the experiment: Inhibition of FGFR4 (unknown origin).
In experiment [7] the test system is A2780. In words: cells. Type of experiment: functional, cell-based. The following applies: Homo sapiens, A2780, 72 h.
Experiment [8] deals with HCT-116. Nature of the experiment: cells. The class given is functional, cell-based. The following applies: Homo sapiens, HCT-116, 72 h.
Experiment [9] concerns Jurkat. Nature of the experiment: cells. Type of experiment: functional, cell-based. The following applies: Homo sapiens, 72 h.
In experiment [10] the target is Fibroblast growth factor receptor 1 (Homo sapiens, UniProt P11362). In words: Inhibition of FGFR1 (unknown origin).
Experiment [11] relates to SNU-16. Nature of the experiment: cells. Type of experiment: functional, cell-based. As to conditions: Homo sapiens, SNU-16, 72 h.
Experiment [12] relates to K562. In words: cells. The class given is functional, cell-based. As to conditions: Homo sapiens, K562, 72 h.
The nature of experiment [13]: cells. Type of experiment: functional, cell-based. As to conditions: Homo sapiens, KATO III, 72 h.
The subject of experiment [14] is SNU-16. The following applies: Homo sapiens, dose 1-100 nM, time 36.0 hrs.
Experiment [15] deals with SNU-16. As to conditions: Homo sapiens, dose 1-100 nM, time 36.0 hrs. This is another data set of the same source.

Sequence of Histone deacetylase 1 (Q13547 whole entry): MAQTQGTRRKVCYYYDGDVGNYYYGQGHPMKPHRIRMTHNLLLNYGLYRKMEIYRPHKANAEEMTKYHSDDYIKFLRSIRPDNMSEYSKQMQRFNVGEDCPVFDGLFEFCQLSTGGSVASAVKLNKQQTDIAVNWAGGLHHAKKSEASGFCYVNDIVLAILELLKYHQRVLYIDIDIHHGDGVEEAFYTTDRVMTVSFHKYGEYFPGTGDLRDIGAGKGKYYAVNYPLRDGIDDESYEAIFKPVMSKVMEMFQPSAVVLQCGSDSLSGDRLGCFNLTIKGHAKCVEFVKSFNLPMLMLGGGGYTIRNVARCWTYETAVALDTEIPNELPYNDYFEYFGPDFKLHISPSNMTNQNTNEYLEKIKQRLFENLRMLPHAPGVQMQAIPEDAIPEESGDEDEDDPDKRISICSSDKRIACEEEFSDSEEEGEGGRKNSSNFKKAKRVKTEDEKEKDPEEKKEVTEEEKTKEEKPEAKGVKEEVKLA
Sequence of Fibroblast growth factor receptor 3 (P22607 whole entry): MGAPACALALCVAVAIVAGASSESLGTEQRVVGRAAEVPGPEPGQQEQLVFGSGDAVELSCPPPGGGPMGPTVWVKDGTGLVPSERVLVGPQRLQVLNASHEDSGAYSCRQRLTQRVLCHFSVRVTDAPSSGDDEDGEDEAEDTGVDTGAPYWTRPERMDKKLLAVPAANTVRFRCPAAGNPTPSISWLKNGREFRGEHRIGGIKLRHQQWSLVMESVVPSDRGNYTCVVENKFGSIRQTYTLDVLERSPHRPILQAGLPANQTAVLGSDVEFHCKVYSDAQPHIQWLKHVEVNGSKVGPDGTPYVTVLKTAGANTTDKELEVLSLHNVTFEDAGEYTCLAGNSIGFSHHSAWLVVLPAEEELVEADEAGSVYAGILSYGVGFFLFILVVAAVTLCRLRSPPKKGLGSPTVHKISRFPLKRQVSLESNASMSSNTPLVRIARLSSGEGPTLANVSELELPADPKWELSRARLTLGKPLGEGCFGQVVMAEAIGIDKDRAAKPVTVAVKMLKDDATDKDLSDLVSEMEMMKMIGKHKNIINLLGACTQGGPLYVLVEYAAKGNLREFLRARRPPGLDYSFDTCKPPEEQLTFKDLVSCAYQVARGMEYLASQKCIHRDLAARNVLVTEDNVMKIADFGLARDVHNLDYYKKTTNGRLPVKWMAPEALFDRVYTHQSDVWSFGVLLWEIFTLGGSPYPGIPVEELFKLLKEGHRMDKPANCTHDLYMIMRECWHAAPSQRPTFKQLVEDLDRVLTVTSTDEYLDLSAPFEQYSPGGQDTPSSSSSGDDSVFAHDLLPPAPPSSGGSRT
Sequence of Fibroblast growth factor receptor 2 (P21802 whole entry): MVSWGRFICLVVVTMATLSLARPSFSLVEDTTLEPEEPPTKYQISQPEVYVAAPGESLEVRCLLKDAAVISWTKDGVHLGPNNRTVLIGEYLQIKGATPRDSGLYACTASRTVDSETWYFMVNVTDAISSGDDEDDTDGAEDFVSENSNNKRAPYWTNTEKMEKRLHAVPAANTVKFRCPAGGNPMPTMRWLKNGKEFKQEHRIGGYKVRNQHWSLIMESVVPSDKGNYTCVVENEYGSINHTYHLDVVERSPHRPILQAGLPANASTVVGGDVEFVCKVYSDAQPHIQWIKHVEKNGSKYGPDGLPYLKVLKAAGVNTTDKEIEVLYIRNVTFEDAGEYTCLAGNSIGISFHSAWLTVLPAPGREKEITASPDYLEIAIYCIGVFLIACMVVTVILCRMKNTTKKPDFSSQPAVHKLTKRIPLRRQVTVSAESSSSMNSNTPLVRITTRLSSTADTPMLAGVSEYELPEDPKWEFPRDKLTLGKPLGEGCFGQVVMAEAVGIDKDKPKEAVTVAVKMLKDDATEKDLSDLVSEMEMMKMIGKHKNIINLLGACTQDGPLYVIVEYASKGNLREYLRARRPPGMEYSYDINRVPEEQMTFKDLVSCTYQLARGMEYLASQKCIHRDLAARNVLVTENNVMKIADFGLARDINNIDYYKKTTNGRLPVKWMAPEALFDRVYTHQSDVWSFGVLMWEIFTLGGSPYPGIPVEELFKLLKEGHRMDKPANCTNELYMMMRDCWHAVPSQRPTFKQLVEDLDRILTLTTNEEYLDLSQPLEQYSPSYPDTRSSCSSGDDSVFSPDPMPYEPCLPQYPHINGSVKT
Sequence of Fibroblast growth factor receptor 1 (P11362 whole entry): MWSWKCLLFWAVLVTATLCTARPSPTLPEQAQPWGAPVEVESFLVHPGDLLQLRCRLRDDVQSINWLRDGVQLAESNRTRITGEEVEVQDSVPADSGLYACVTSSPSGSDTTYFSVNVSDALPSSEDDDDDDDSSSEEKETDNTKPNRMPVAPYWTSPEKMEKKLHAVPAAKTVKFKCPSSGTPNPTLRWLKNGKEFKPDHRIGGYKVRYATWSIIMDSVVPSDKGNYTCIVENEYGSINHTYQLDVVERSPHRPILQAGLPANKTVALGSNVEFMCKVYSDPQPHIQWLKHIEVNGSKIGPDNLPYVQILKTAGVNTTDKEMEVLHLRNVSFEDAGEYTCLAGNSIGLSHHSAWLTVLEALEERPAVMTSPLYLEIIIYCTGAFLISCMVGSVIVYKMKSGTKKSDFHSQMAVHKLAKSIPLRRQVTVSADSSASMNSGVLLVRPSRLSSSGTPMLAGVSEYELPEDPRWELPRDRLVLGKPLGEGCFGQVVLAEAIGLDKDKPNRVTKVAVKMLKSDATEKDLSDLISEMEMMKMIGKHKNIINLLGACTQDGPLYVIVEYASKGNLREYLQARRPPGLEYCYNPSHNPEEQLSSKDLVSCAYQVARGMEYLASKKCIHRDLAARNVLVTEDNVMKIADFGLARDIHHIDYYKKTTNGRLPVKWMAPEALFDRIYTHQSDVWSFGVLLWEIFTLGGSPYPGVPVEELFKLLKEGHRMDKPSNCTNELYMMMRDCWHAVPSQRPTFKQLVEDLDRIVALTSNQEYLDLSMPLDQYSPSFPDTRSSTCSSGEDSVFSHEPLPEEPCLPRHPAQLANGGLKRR
Sequence of Fibroblast growth factor receptor 4 (P22455 whole entry): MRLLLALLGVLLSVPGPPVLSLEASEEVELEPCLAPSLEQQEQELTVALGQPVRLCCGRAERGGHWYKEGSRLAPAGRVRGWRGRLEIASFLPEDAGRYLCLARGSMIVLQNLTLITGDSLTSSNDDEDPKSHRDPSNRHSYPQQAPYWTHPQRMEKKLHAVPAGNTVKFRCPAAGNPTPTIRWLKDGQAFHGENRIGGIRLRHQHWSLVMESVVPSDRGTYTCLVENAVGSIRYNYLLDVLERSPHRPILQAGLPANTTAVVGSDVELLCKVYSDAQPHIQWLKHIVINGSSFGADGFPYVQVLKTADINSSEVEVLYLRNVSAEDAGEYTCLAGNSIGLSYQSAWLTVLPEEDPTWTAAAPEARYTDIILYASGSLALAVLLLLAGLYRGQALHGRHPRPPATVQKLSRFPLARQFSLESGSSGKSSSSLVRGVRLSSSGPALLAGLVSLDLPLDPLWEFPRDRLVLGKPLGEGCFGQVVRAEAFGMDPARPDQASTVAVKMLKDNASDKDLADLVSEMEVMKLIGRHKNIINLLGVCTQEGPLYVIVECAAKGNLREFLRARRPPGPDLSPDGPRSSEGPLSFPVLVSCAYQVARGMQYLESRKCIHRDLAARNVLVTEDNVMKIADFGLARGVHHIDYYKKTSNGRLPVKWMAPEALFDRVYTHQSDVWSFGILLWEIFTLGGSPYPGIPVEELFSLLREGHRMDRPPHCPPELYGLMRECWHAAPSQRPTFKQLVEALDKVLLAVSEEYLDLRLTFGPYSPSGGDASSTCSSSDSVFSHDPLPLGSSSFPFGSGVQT

As usually defined, the IC50 is the concentration that gives 50% inhibition. `COc1cc(OC)cc(N(CCNC(C)C)c2ccc3ncc(-c4cnn(CCC(=O)Nc5ccc(C(=O)NO)cc5)c4)nc3c2)c1`: the half-inhibitory concentration (IC50) in [1] was determined as 0.0057 µM.
Same read-out and setting: next, `COc1cc(OC)cc(N(CCNC(C)C)c2ccc3ncc(-c4cnn(CCCCCCCCC(=O)NO)c4)nc3c2)c1`: 0.016 µM; `COc1cc(OC)cc(N(CCNC(C)C)c2ccc3ncc(-c4cnn(Cc5cccc(C(=O)NO)c5)c4)nc3c2)c1`: greater than 1 µM; `COc1cc(OC)cc(N(CCNC(C)C)c2ccc3ncc(-c4cnn(CCCC(=O)NO)c4)nc3c2)c1`: 0.653 µM.
On the same count and under the same terms, in the case of `COc1cc(OC)cc(N(CCNC(C)C)c2ccc3ncc(-c4cnn(CCCCCCCC(=O)NO)c4)nc3c2)c1` it was 0.0063 µM; in that of `COc1cc(OC)cc(N(CCNC(C)C)c2ccc3ncc(-c4cnn(Cc5ccc(C(=O)NO)cc5)c4)nc3c2)c1`, greater than 1 µM.
The same measure, in the same setting: next, `COc1cc(OC)cc(N(CCNC(C)C)c2ccc3ncc(-c4cnn(CCCCOc5ccc(C(=O)NO)cc5)c4)nc3c2)c1`: 0.16 µM; `COc1cc(OC)cc(N(CC2CC2)c2ccc3ncc(-c4cnn(CCCCCC(=O)NO)c4)nc3c2)c1`: 0.077 µM.
With `COc1cc(OC)cc(N(CCCCCC(=O)NO)c2ccc3ncc(-c4cnn(C)c4)nc3c2)c1`, the IC50 in experiment [1] is 0.0026 µM; in [2], 0.0063 µM.
Consider `COc1cc(OC)cc(N(CCCCCCC(=O)NO)c2ccc3ncc(-c4cnn(C)c4)nc3c2)c1`, for which the concentration for half-maximal inhibition (IC50) in experiment [1] turned out to be 0.0058 µM; in [2] it was 0.013 µM.
In [1], `COc1cc(OC)cc(N(CC2CC2)c2ccc3ncc(-c4cnn(CCCCC(=O)NO)c4)nc3c2)c1` had a concentration for half-maximal inhibition (IC50) of 0.177 µM.
For the compound `COc1cc(OC)cc(N(CCNC(C)C)c2ccc3ncc(-c4cnn(CCOc5ccc(C(=O)NO)cc5)c4)nc3c2)c1`, the half-inhibitory concentration (IC50) turned out to be 0.0019 µM in experiment [3]; 0.00062 µM in experiment [4]; 0.0059 µM in experiment [1]; 0.288 µM in experiment [5]; 0.0034 µM in experiment [2]; 0.0013 µM in experiment [6].
`COc1cc(OC)cc(N(CCNC(C)C)c2ccc3ncc(-c4cnn(CCc5ccc(C(=O)NO)cc5)c4)nc3c2)c1` came in with an IC50 in experiment [1] of 0.069 µM.
On the same count and under the same terms, in the case of `COc1cc(OC)cc(N(CCNC(C)C)c2ccc3ncc(-c4cnn(Cc5ccc(CC(=O)NO)cc5)c4)nc3c2)c1` it was greater than 1 µM.
`COc1cc(OC)cc(N(CCNC(C)C)c2ccc3ncc(-c4cnn(Cc5ccc(/C=C/C(=O)NO)cc5)c4)nc3c2)c1`: the IC50 was found to be 0.06 µM in experiment [7]; 0.06 µM in experiment [8]; 0.047 µM in experiment [1]; 6.38 µM in experiment [9]; 0.028 µM in experiment [10]; 0.05 µM in experiment [11]. The half-inhibitory concentration (IC50) was 0.46 µM in experiment [12] and 0.12 µM in experiment [13].
As for `COc1cc(OC)cc(N(CC2CC2)c2ccc3ncc(-c4cnn(CCCCCCCC(=O)NO)c4)nc3c2)c1`, half-maximal inhibition in [1] (IC50) was put at 0.172 µM.
On to `COc1cc(OC)cc(N(CCNC(C)C)c2ccc3ncc(-c4cnn(C)c4)nc3c2)c1` [ERDAFITINIB], for which the IC50 turned out to be 0.02 µM in experiment [7]; 4.24 µM in [8]; 6.81 µM in [9]; 0.0007 µM in [11]; 3.02 µM in experiment [12]; 0.004 µM in [13]. Further, the inhibition entry in [14] is “Dde”. The inhibition entry in experiment [15] was “Active”.
For `COc1cc(OC)cc(N(CCNC(C)C)c2ccc3ncc(-c4cnn(CCCCCOc5ccc(C(=O)NO)cc5)c4)nc3c2)c1`, the midpoint of inhibition in experiment [1], the IC50, lay at 0.273 µM. That is a sub-micromolar value.
Same read-out and setting: next, `COc1cc(OC)cc(N(CC2CC2)c2ccc3ncc(-c4cnn(CCCC(=O)NO)c4)nc3c2)c1`: greater than 1 µM.
The same measure, in the same setting: in the case of `COc1cc(OC)cc(N(CCNC(C)C)c2ccc3ncc(-c4cnn(CCCCCC(=O)NO)c4)nc3c2)c1` it was 0.0044 µM.
Consider `COc1cc(OC)cc(N(CCCCC(=O)NO)c2ccc3ncc(-c4cnn(C)c4)nc3c2)c1`, for which the values for the IC50 in experiment [1] and in experiment [2] were 0.157 µM and 0.107 µM, respectively.
The compound `COc1cc(OC)cc(N(CCNC(C)C)c2ccc3ncc(-c4cnn(CCCOc5ccc(C(=O)NO)cc5)c4)nc3c2)c1` came in with an IC50 in [1] of 0.126 µM.
